Data reported in paper PMC12475274, “Harnessing indole scaffolds to identify small-molecule IRE1α inhibitors modulating XBP1 mRNA splicing” (Nature Communications, 2025).
Several values for one entry are separate records, joined by “and”; a condition that tells them apart may be missing. Identical values can stand only once. Like-named read-outs stand apart in the source and are kept apart here.

Tests used:
[1] = biological target: T1, dephosphorylated IRE1α (547–977) (Homo sapiens, UniProt O75460); test: FRET-based IRE1α RNase activity assay, dephosphorylated IRE1α; assay type: biochemical
T1 construct: Human IRE1α kinase and RNase domain (residues 547–977) was subcloned into pLIB plasmid; His tag (with TEV cleavage site) (N, cleaved yes); made in house; host or cells: Sf9 insect cells, baculovirus (Bac-to-Bac)
Method: (§1) Human IRE1α kinase and RNase domain (residues 547–977) was subcloned into pLIB plasmid with a His tag and TEV cleavage site, and expressed using Bac-to-Bac expression system. The primers used are listed in Supplementary Table S3. The protein purification was performed following established procedures. Briefly, Sf9 cells were infected with baculovirus and incubated at 27 °C 110 rpm for 72 h. The cells were collected by centrifugation at 4000 × g for 15 min and the cell pellet was resuspended in lysis buffer (50 mM HEPES pH 7.5, 300 mM NaCl, 10% glycerol, 1 mM MgCl2, 1 mM TCEP, 5 mM imidazole), then supplemented with 1:10,000 benzonase (Sigma, E1014), 1 tablet/25 mL […]™ Protease Inhibitor Cocktail tablets (Sigma, S8830) and 1 mM PMSF before lysed by sonication at 4 °C. […] The protein elution was incubated with TEV protease to remove His tag at 4 °C overnight. Then the sample was diluted 1:6 in buffer (50 mM HEPES pH 7.5, 1 mM TCEP, 5% glycerol) and loaded onto a 5 mL pre-packaged Q HP anion exchange column (Cytiva, HiTrap Q HP) pre-equilibrated with QA buffer (50 mM HEPES pH 7.5, 50 mM NaCl, 1 mM TCEP, 5% glycerol). The unphosphorylated and phosphorylated protein was separated by eluting the protein with a very shallow gradient with 0-30% buffer QB (50 mM HEPES pH 7.5, 1 M NaCl, 1 mM TCEP, 5% glycerol) over 80 CV. Different peaks were collected separately and verified by LC-MS. The fully phosphorylated fraction was collected and further purified by size exclusion chromatography (Cytiva, HiLoad 16/600 Superdex 200 pg,) with SEC buffer (25 mM HEPES pH 7.5, 250 mM NaCl, 1 mM TCEP, 10% glycerol) and fractioned as monomeric peak. The rest protein fraction from the Q HP anion exchange column was incubated with Lambda protein phosphatase (New England BioLabs, P0753S) overnight at 4 °C, the dephosphorylation was confirmed by LC-MS. The unphosphorylated protein was further purified by size exclusion chromatography with the SEC buffer described above. The purified phosphorylated (p-IRE1α) and dephosphorylated (IRE1α) protein aliquots were stored at −80 °C for future usage.
The dual-labeled RNA substrate with a FAM at 5’ and the BHQ-1 at 3’ containing the XBP1 sequence (5′FAM-[…]-3′BHQ1) was purchased from Integrated DNA Technologies (IDT). The FRET-based IRE1α RNase activity assay was carried out in reaction buffer containing 20 mM HEPES pH 7.5, 50 mM KOAc, 1 mM MgOAc2, 1 mM DTT, 0.05% v/v TritonX-100, at a total reaction volume of 20 μL in a 384-well black plate (4514, Corning). For unphosphorylated IRE1α (IRE1α), a final concentration of 40 nM IRE1α protein and 100 nM RNA substrate was used. For phosphorylated IRE1 (p-IRE1α), a final concentration of 4 nM p-IRE1α protein and 200 nM RNA substrate was used. The indicated compound and IRE1α protein were incubated for 30 min at room temperature before the substrate was added to the reaction. The plate was then kinetically read over one hour at room temperature using a TECAN Spark plate reader. The measurement was carried out using the fluorescence top reading mode at the excitation wavelength of 485 nm and the emission wavelength of 535 nm with a 10 nm excitation and emission bandwidth. The linear part of the reaction curve was adopted and fitted with sample linear regression to obtain the slope, and the slope was adopted to reflect the reaction rate. The inhibition % was calculated by using the equation: inhibition% = 100 × (slope of DMSO control – slope of the sample)/(slope of DMSO control – slope of blank control), DMSO control: DMSO with protein and RNA substrate; Blank control: DMSO with RNA substrate. The IC50 values were calculated using the concentration-response model in GraphPad Prism 9. […]

[2] = biological target: T2, phosphorylated IRE1α (p-IRE1α) (Homo sapiens, UniProt O75460); test: FRET-based IRE1α RNase activity assay, phosphorylated IRE1α; assay type: biochemical
T2 construct: Human IRE1α kinase and RNase domain (residues 547–977) was subcloned into pLIB plasmid; His tag (with TEV cleavage site) (N, cleaved yes); made in house; host or cells: Sf9 insect cells, baculovirus (Bac-to-Bac)
Method: as §1
The dual-labeled RNA substrate with a FAM at 5’ and the BHQ-1 at 3’ containing the XBP1 sequence (5′FAM-[…]-3′BHQ1) was purchased from Integrated DNA Technologies (IDT). The FRET-based IRE1α RNase activity assay was carried out in reaction buffer containing 20 mM HEPES pH 7.5, 50 mM KOAc, 1 mM MgOAc2, 1 mM DTT, 0.05% v/v TritonX-100, at a total reaction volume of 20 μL in a 384-well black plate (4514, Corning). For unphosphorylated IRE1α (IRE1α), a final concentration of 40 nM IRE1α protein and 100 nM RNA substrate was used. For phosphorylated IRE1 (p-IRE1α), a final concentration of 4 nM p-IRE1α protein and 200 nM RNA substrate was used. The indicated compound and IRE1α protein were incubated for 30 min at room temperature before the substrate was added to the reaction. The plate was then kinetically read over one hour at room temperature using a TECAN Spark plate reader. The measurement was carried out using the fluorescence top reading mode at the excitation wavelength of 485 nm and the emission wavelength of 535 nm with a 10 nm excitation and emission bandwidth. The linear part of the reaction curve was adopted and fitted with sample linear regression to obtain the slope, and the slope was adopted to reflect the reaction rate. The inhibition % was calculated by using the equation: inhibition% = 100 × (slope of DMSO control – slope of the sample)/(slope of DMSO control – slope of blank control), DMSO control: DMSO with protein and RNA substrate; Blank control: DMSO with RNA substrate. The IC50 values were calculated using the concentration-response model in GraphPad Prism 9.

[3] = FRET assay, RNase activity, mean (± SEM), read-out: IRE1α IC50
[4] = FRET assay, source data, unit from Fig. 3 / sheet Fig. 2b, read-out: IRE1a IC50, individual replicates (n1-n4)
[5] = FRET assay, RNase activity, mean (± SEM), read-out: p-IRE1α IC50
[6] = FRET assay, source data, unit from Fig. 3, read-out: p-IRE1a IC50, individual replicates (n1-n4)
[7] = FRET assay, RNase activity, mean (± SEM)

T2 sequence (O75460 547-977): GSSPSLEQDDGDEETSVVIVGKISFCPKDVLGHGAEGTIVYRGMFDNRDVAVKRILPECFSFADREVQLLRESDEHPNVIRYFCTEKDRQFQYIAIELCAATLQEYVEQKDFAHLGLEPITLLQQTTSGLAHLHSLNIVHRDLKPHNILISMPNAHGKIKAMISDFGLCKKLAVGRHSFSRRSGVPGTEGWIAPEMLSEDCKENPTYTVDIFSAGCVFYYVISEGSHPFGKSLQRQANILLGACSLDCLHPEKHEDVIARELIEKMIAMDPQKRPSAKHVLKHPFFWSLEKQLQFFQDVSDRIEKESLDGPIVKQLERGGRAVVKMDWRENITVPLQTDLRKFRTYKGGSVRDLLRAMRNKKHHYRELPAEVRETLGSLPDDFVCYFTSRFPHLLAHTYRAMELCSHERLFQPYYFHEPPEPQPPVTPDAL
T1 sequence (O75460 547-977): as above

Cc1c(CCC(=O)O)c2cc(-c3cn[nH]c3)ccc2n1C(=O)c1ccccc1 [IA158]
IC50 [1, 3]: 700 nM
IC50 [1, 4]: 708 nM and 693 nM
IC50 [2, 5]: 2340 nM
IC50 [2, 6]: 3180 nM and 1500 nM

Cc1c(CCC(=O)O)c2cc(-c3cccs3)ccc2n1C(=O)c1ccccc1 [IA140]
IC50 [1, 3]: 2970 nM
IC50 [1, 4]: 2310 nM and 3810 nM and 2780 nM
IC50 [2, 5]: 7560 nM
IC50 [2, 6]: 1970 nM and 10100 nM and 10600 nM

Cc1c(CCC(=O)O)c2cc(-c3cccc(C(=O)O)c3)ccc2n1C(=O)c1ccccc1 [IA149]
IC50 [1, 3]: 1010 ± 270 nM
IC50 [1, 4]: 895 nM and 824 nM and 1320 nM
IC50 [2, 5]: 8810 nM and 8820 nM
IC50 [2, 6]: 6800 nM and 11600 nM and 8050 nM

COc1ccc2c(c1)c(CCC(=O)O)c(C)n2C(=O)N1CCOCC1 [IA77]
IRE1α IC50 [1, 7]: IC₅₀ not reached
IC50 [1, 3]: > 20000 nM
p-IRE1α IC50 [2, 7]: IC₅₀ not reached
IC50 [2, 5]: > 20000 nM

Cc1c(CCC(=O)O)c2ccccc2n1C(=O)c1cccs1 [IA42]
IC50 ([1]; IRE1a, individual replicates (n1-n4), Supplementary Fig. 2b, 2c, read-out: IC50): 1960 nM and 3270 nM and 1050 nM
IC50 ([1]; IRE1a, mean, Supplementary Fig. 2b, 2c, read-out: IC50, mean): 2090 nM
IC50 ([2]; p-IRE1a, individual replicates (n1-n3), Supplementary Fig. 2b, 2c, read-out: IC50): 4450 nM and 1100 nM
IC50 ([2]; p-IRE1a, mean, Supplementary Fig. 2b, 2c, read-out: IC50, mean): 2770 nM

COc1ccc2c(c1)c(CCC(=O)O)c(C)n2C(=O)N1CCCCC1 [IA89]
IC50 [1, 3]: 69600 nM
IC50 [1, 4]: 33400 nM and 89300 nM and 86000 nM
p-IRE1α IC50 [2, 7]: IC₅₀ not reached
IC50 [2, 5]: > 20000 nM

COC(=O)CCCc1c(C)n(C(=O)c2ccc(Cl)cc2)c2ccc(OC)cc12 [cms06]
inhibition at 50 µM ([1]; FRET assay at 50 μM, mean (± SEM), read-out: IRE1α inhibition%): < 30%
inhibition at 50 µM ([2]; FRET assay at 50 μM, mean (± SEM), read-out: p-IRE1α inhibition%): < 30%

Cc1c(CCC(=O)O)c2cc(-c3ccc(C(N)=O)cc3)ccc2n1C(=O)c1ccccc1 [IA152]
IC50 [1, 3]: 12100 nM
IC50 [1, 4]: 10800 nM and 12500 nM and 13000 nM
IC50 [2, 5]: 43100 nM
IC50 [2, 6]: 46900 nM and 49800 nM and 32500 nM

CC(=O)c1ccc(-c2ccc3c(c2)c(CCC(=O)O)c(C)n3C(=O)c2ccccc2)s1 [IA162]
IC50 [1, 3]: 4730 nM
IC50 [1, 4]: 3280 nM and 6180 nM
IC50 [2, 5]: 15100 nM
IC50 [2, 6]: 15800 nM and 14400 nM

Cc1c(CCC(=O)O)c2cc(-c3cccc(N)c3)ccc2n1C(=O)c1ccccc1 [IA146]
IC50 [1, 3]: 1210 ± 820 nM
IC50 [1, 4]: 2150 nM and 810 nM and 672 nM
IC50 [2, 5]: 6650 nM
IC50 [2, 6]: 7280 nM and 8070 nM and 4590 nM

Cc1c(CCC(=O)O)c2cc(Br)ccc2n1C(=O)C1CCCCC1 [IA165]
effect on IRE1α RNase activity in the FRET assay [1]: decreased the inhibitory activity
inhibition at 0.617284 µM ([1]; IRE1a, 0.617284 μM): 36.9%
inhibition(%) ([1]; IRE1a, 0.617284 μM): 46.932% and 53.398% and 47.875%
inhibition at 1.85185 µM ([1]; IRE1a, 1.85185 μM): 53.7%
inhibition(%) ([1]; IRE1a, 1.85185 μM): 60.820% and 65.775% and 59.822%
inhibition at 5.55556 µM ([1]; IRE1a, 5.55556 μM): 76%
inhibition(%) ([1]; IRE1a, 5.55556 μM): 76.919% and 67.673% and 77.366%
inhibition(%) ([1]; IRE1a, 16.6667 μM): 82.061% and 76.393% and 74.507%
inhibition at 16.6667 µM ([1]; IRE1a, 16.6667 μM, read-out: inhibition(%)): 75.9%
inhibition(%) ([1]; IRE1a, 50 μM): 53.077% and 49.468% and 70.447% and 68.706%
inhibition(%) ([2]; p-IRE1a, 0.000847 μM): -0.707% and 0.787% and -7.504% and -5.865%
inhibition(%) ([2]; p-IRE1a, 0.00254 μM): -6.491% and -3.358% and -4.226% and 3.246%
inhibition(%) ([2]; p-IRE1a, 0.007621 μM): -0.418% and -0.611% and -4.226% and 0.305%
inhibition(%) ([2]; p-IRE1a, 0.068587 μM): 0.450% and 2.715% and -3.792% and 0.305%
inhibition(%) ([2]; p-IRE1a, 0.205761 μM): 1.992% and 4.885% and 4.065% and 5.463%
inhibition at 1.85185 µM ([2]; p-IRE1a, 1.85185 μM): 34%
inhibition(%) ([2]; p-IRE1a, 1.85185 μM): 36.843% and 31.203% and 36.891%
inhibition at 5.55556 µM ([2]; p-IRE1a, 5.55556 μM): 58.9%
inhibition(%) ([2]; p-IRE1a, 5.55556 μM): 56.028% and 61.836% and 59.894%
inhibition at 16.6667 µM ([2]; p-IRE1a, 16.6667 μM): 90.7%
inhibition(%) ([2]; p-IRE1a, 16.6667 μM): 88.753% and 83.846% and 83.803%
inhibition(%) ([2]; p-IRE1a, 50 μM): 95.227% and 95.680% and 96.051%
inhibition at 50 µM ([2]; p-IRE1a, 50 μM, read-out: inhibition(%)): 94.7%

Cc1noc(C)c1-c1ccc2c(c1)c(CCC(=O)O)c(C)n2C(=O)c1ccccc1 [IA142]
IC50 [1, 3]: 1610 nM
IC50 [1, 4]: 2690 nM and 1100 nM and 1040 nM
IC50 [2, 5]: 4680 nM
IC50 [2, 6]: 4810 nM and 5540 nM and 3680 nM

Cc1c(CCC(=O)O)c2cc(F)ccc2n1C(=O)c1ccccc1 [IA137]
IC50 [1, 3]: 420 nM
IC50 [1, 4]: 180 nM and 670 nM and 418 nM
IC50 [2, 5]: 720 nM
IC50 [2, 6]: 252 nM and 1120 nM and 788 nM

COc1ccc2c(c1)c(CCC(=O)O)c(C)n2C(=O)c1ccccn1 [IA04]
IC50 [1, 3]: 530 nM
IC50 [1, 4]: 337 nM and 1040 nM and 203 nM
IC50 [2, 5]: 820 nM
IC50 [2, 6]: 1590 nM and 458 nM and 394 nM

O=C(O)Cc1c[nH]c2ccccc12 [auxin, reference compound]
IRE1α inhibition% ([1]; FRET assay at 50 μM, mean (± SEM)): ≤ 50%
